The results in this text go back to ChEMBL document CHEMBL4325918, “Allosteric CB1 Receptor Modulators for the Treatment of CB1 Related Diseases and Conditions” (ACS Med Chem Lett, 2018).

Structures are written as SMILES. The source made the active and inactive calls.

As a reminder, the IC50 is the concentration that gives 50% inhibition. As usually defined, the half-life is the time needed for the level to fall by half in the phase considered. A low value points to rapid decline. For orientation: Emax means the size of the effect at its maximum, as opposed to the concentration needed.

Series [1] addresses T1, Cannabinoid receptor 1 (Homo sapiens, UniProt P21554). Nature of the series: Allosteric modulation of CB1 receptor (unknown origin) assessed as inhibition of CP55940-induced [35S]GTPgammaS binding. The format is functional. A general note: Binding of GTPγS marks nucleotide exchange on a G protein.
A short description of series [2]: Half life in Sprague-Dawley rat. Format: ADME. As to conditions: in vivo.
Series [3] has as its system Rattus norvegicus. Nature of the series: Reduction in cocaine-induced reinstatement of cocaine seeking behavior in Sprague-Dawley rat at 10 mg/kg. The format is functional, organism-based.
The target in series [4] is T1, Cannabinoid receptor 1. Kind of series: Agonist activity at CB1 receptor (unknown origin) relative to CP55940.

T1 sequence (P21554 whole entry): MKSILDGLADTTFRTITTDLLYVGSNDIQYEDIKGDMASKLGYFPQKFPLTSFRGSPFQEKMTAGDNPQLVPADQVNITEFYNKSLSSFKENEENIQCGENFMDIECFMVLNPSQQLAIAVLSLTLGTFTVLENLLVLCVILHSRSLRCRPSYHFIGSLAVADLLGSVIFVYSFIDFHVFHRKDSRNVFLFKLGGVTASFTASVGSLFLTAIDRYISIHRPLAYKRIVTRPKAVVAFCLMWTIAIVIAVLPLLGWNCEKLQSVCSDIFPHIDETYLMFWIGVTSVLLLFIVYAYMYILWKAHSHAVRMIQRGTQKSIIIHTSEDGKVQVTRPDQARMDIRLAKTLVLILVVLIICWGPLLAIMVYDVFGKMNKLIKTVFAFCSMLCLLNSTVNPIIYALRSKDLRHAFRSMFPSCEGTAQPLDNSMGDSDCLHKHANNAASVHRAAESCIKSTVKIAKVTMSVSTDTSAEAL

On to `O=C(Nc1ccc(Cl)cc1)Nc1cccc(-c2ccc(F)cc2)c1`, for which the IC50 in series [1] was determined as 151 nM. This molecule also registered a half-life in series [2] of 5 h. In addition, the outcome in series [3] was Active. As for `O=C(Nc1ccc(Cl)cc1)Nc1cccc(-c2ccc(F)cc2F)c1`, the IC50 in series [1] came out at 353 nM.

For the molecule `O=C(Nc1ccc(Cl)cc1)Nc1cccc(-c2ccccn2)c1`, the IC50 in series [1] was determined as 2650 nM.

With `O=C(Nc1ccc(Cl)cc1)Nc1cccc(-c2ccoc2)c1`, the IC50 in series [1] was 440 nM. `O=C(Nc1ccc(Cl)cc1)Nc1cccc(-c2ccccc2)c1`: the IC50 in series [1] is 437 nM.

In the case of `O=C(Nc1ccc(Cl)cc1)Nc1cccc(-c2cccc([N+](=O)[O-])c2)c1`, the IC50 in series [1] was determined as 452 nM. Molecule `O=C(Nc1ccc(Cl)cc1)Nc1cccc(-c2ccsc2)c1` displayed an Emax in series [4] of 28.9%. Further, the IC50 in series [1] worked out at 164 nM. In series [4], `Cc1ccc(-c2cccc(NC(=O)Nc3ccc(Cl)cc3)c2)s1` came in with an Emax of 4.6%. For the same molecule, the IC50 in series [1] amounted to 372 nM. Regarding `O=C(Nc1ccc(Cl)cc1)Nc1cccc(N2CCC2)c1`, the IC50 in series [1] stood at 1380 nM.

As to `O=C(Nc1ccc(Cl)cc1)Nc1cccc(-c2cc(Cl)cc(Cl)c2)c1`, the 50% inhibitory concentration (IC50) in series [1] came out at 299 nM. Molecule `Cc1cc(-c2cccc(NC(=O)Nc3ccc(Cl)cc3)c2)cs1` gave an Emax in series [4] of 3.7%. The IC50 in series [1] came out at 776 nM.
